Consider ten molecules from ChEMBL document CHEMBL5331069, “Potential of glycyrrhizic and glycyrrhetinic acids against influenza type A and B viruses: A perspective to develop new anti-influenza compounds and drug delivery systems” (Eur J Med Chem, 2023).

Values after ≈ are worked out from the molar mass of the structure shown.

The term CC50 denotes the concentration giving 50% cytotoxicity. One may read the IC50 as the midpoint of a concentration-inhibition curve. Usually EC50 stands for the concentration needed to bring the measured effect to its halfway point. The term solubility denotes the concentration that dissolves in the medium under given conditions. A word on the bioavailability: it is the share of a dose that reaches the circulation, judged against a reference dose that is usually intravenous. Lower therefore signals little systemic uptake.

The nature of data set [1]: Cytotoxicity against MDCK cells assessed as reduction in cell viability incubated for 48 hrs. Format: toxicity, cell-based, Canis lupus familiaris. Particulars: dog.
Data set [2] deals with Influenza A virus. Nature of the data set: Antiviral activity against Influenza A virus A/Aichi/2/68(H3N2) infected in MDCK cells assessed as inhibition of virus-induced cytopathicity. Format: functional, organism-based.
The nature of data set [3]: Cytotoxicity against MDCK cells assessed as reduction in cell viability incubated for 48 hrs by CellTiter-Glo assay. Format: toxicity, cell-based, Canis lupus familiaris. Particulars: dog.
Data set [4] has as its system Influenza A virus. As to the kind of experiment: Antiviral activity against Influenza A virus A/WSN/33(H1N1) infected in MDCK cells assessed as inhibition of virus-induced cytopathic effect incubated for 48 hrs by CellTiter-Glo assay. The format is functional, organism-based. On the technique in general: Damage to the host cells serves as the signal in cytopathic effect assays.

Data set [5] concerns Influenza A virus. Nature of the data set: Antiviral activity against influenza A virus H1N1/pdm09 infected in MDCK cells assessed as reduction in viral titer preincubated with compound for 1 hr followed by virus infection incubated for 48 hrs followed by addition of chicken erythrocytes measured after 40 mins by hemagglutination assay. Format: functional, organism-based.
Data set [6] in a line: Cytotoxicity against MDCK cells assessed as reduction in cell viability incubated for 48 hrs by MTT assay. Format: toxicity, cell-based, Canis lupus familiaris. Particulars: dog.
Data set [7] relates to Influenza A virus. Nature of the data set: Antiviral activity against influenza A virus A/Pert/16/09(H3N2) infected in MDCK cells assessed as reduction in viral titer by agglutination assay. The format is functional, organism-based.
The subject of data set [8] is Influenza A virus. As to the kind of experiment: Antiviral activity against influenza A virus A/California/07/09(H1N1)pdm09 infected in MDCK cells assessed as reduction in viral titer by agglutination assay. Format: functional, organism-based. Particulars: A/California/07/09(H1N1)pdm09, MDCK.
A short description of data set [9]: Cytotoxicity against MDCK cells assessed as reduction in cell viability incubated for 72 hrs by MTT assay. The format is toxicity, cell-based, Canis lupus familiaris. As to conditions: dog. For orientation: Formazan colour is commonly taken as a measure of viable cells.
Data set [10] can be described thus: Water solubility of the compound by shake flask method. As to conditions: buffer. Format: physicochemical.
Data set [11] is described as follows: Oral bioavailability in rat. The format is ADME, organism-based. As to conditions: in vivo.
The test system of data set [12] is Influenza A virus. As to the kind of experiment: Antiviral activity against influenza A virus A/NIBRG/14/H5N1 infected in MDCK cells assessed as reduction in viral titer by agglutination assay. The format is functional, organism-based. Particulars: A/NIBRG/14/H5N1, MDCK.
Another data set relates to Influenza B virus. As to the kind of experiment: Antiviral activity against influenza B virus B/Brisben/60/08 infected in MDCK cells assessed as reduction in viral titer by agglutination assay. As to conditions: B/Brisben/60/08, MDCK. The format is functional, organism-based.
Data set [13] relates to Influenza A virus. Nature of the data set: Antiviral activity against influenza A virus A/WSN/33(H1N1) infected in BALB/c mouse assessed as log reduction in viral load in lungs at 5 mg/kg administered intranasally for 5 days. Format: functional. As to conditions: route nas, time 5 day.
Data set [14] is described as follows: Water solubility of the compound. The format is physicochemical.

`CC(=O)N(CCS[C@@H]1O[C@H](C(=O)O)[C@@H](O)[C@H](O)[C@H]1O)[C@H]1CC[C@]2(C)[C@H]3C(=O)C=C4[C@@H]5C[C@@](C)(C(=O)O)CC[C@]5(C)CC[C@@]4(C)[C@]3(C)CC[C@H]2C1(C)C`: the CC50 at 48 h in data set [1] is more than 250 µg/mL. Also, the half-inhibitory concentration (IC50) with Influenza A virus [2] was 87 µg/mL (≈ 116 µM).

Take `CC(=O)O[C@@H]1[C@@H](OC(C)=O)[C@H]2O[C@H]3[C@H](OC(C)=O)[C@@H](OC(C)=O)[C@@H](O[C@H]4[C@H](OC(C)=O)[C@@H](OC(C)=O)[C@@H](O[C@H]5[C@H](OC(C)=O)[C@@H](OC(C)=O)[C@@H](O[C@H]6[C@H](OC(C)=O)[C@@H](OC(C)=O)[C@@H](O[C@H]7[C@H](OC(C)=O)[C@@H](OC(C)=O)[C@@H](O[C@H]8[C@H](OC(C)=O)[C@@H](OC(C)=O)[C@@H](O[C@@H]1[C@@H](Cn1cc(CN9CCN(CCNC(=O)[C@@]%10(C)CC[C@]%11(C)CC[C@]%12(C)C(=CC(=O)[C@@H]%13[C@@]%14(C)CC[C@H](O)C(C)(C)[C@@H]%14CC[C@]%13%12C)[C@@H]%11C%10)CC9)nn1)O2)O[C@@H]8Cn1cc(CN2CCN(CCNC(=O)[C@@]8(C)CC[C@]9(C)CC[C@]%10(C)C(=CC(=O)[C@@H]%11[C@@]%12(C)CC[C@H](O)C(C)(C)[C@@H]%12CC[C@]%11%10C)[C@@H]9C8)CC2)nn1)O[C@@H]7Cn1cc(CN2CCN(CCNC(=O)[C@@]7(C)CC[C@]8(C)CC[C@]9(C)C(=CC(=O)[C@@H]%10[C@@]%11(C)CC[C@H](O)C(C)(C)[C@@H]%11CC[C@]%109C)[C@@H]8C7)CC2)nn1)O[C@@H]6Cn1cc(CN2CCN(CCNC(=O)[C@@]6(C)CC[C@]7(C)CC[C@]8(C)C(=CC(=O)[C@@H]9[C@@]%10(C)CC[C@H](O)C(C)(C)[C@@H]%10CC[C@]98C)[C@@H]7C6)CC2)nn1)O[C@@H]5Cn1cc(CN2CCN(CCNC(=O)[C@@]5(C)CC[C@]6(C)CC[C@]7(C)C(=CC(=O)[C@@H]8[C@@]9(C)CC[C@H](O)C(C)(C)[C@@H]9CC[C@]87C)[C@@H]6C5)CC2)nn1)O[C@@H]4Cn1cc(CN2CCN(CCNC(=O)[C@@]4(C)CC[C@]5(C)CC[C@]6(C)C(=CC(=O)[C@@H]7[C@@]8(C)CC[C@H](O)C(C)(C)[C@@H]8CC[C@]76C)[C@@H]5C4)CC2)nn1)O[C@@H]3Cn1cc(CN2CCN(CCNC(=O)[C@@]3(C)CC[C@]4(C)CC[C@]5(C)C(=CC(=O)[C@@H]6[C@@]7(C)CC[C@H](O)C(C)(C)[C@@H]7CC[C@]65C)[C@@H]4C3)CC2)nn1`: the CC50 at 48 h in data set [3] was more than 100 µM. The IC50 with Influenza A virus [4] is 2.86 µM.

As for `CC1(C)[C@@H](SCCS[C@@H]2O[C@H](C(=O)O)[C@@H](O)[C@H](O)[C@H]2O)CC[C@]2(C)[C@H]3C(=O)C=C4[C@@H]5C[C@@](C)(C(=O)O)CC[C@]5(C)CC[C@@]4(C)[C@]3(C)CC[C@@H]12`, the CC50 at 48 h in data set [1] was more than 250 µg/mL. The concentration for half-maximal inhibition (IC50) in the data set with Influenza A virus [2] was determined as 54 µg/mL (≈ 74.7 µM).

For `COC(=O)CCCCCNC(=O)[C@H]1O[C@@H](O[C@H]2[C@H](O[C@H]3CC[C@]4(C)[C@H]5C(=O)C=C6[C@@H]7C[C@@](C)(C(=O)O)CC[C@]7(C)CC[C@@]6(C)[C@]5(C)CC[C@H]4C3(C)C)O[C@H](C(=O)NCCCCCC(=O)OC)[C@@H](O)[C@@H]2O)[C@H](O)[C@@H](O)[C@@H]1O`, the 50% effective concentration (EC50) with Influenza A virus [5] worked out at 12.7 µg/mL (≈ 11.8 µM). Besides, the half-maximal cytotoxic concentration (CC50) at 48 h in [6] worked out at 408 µg/mL (≈ 379 µM).

Take `COC(=O)C(Cc1c[nH]c2ccccc12)NC(=O)[C@H]1O[C@@H](O[C@H]2[C@H](O[C@H]3CC[C@]4(C)[C@H]5C(=O)C=C6[C@@H]7C[C@@](C)(C(=O)NC(Cc8c[nH]c9ccccc89)C(=O)OC)CC[C@]7(C)CC[C@@]6(C)[C@]5(C)CC[C@H]4C3(C)C)O[C@H](C(=O)NC(Cc3c[nH]c4ccccc34)C(=O)OC)[C@@H](O)[C@@H]2O)[C@H](O)[C@@H](O)[C@@H]1O` (stereo partly drawn): the EC50 was determined as 74.4 µg/mL (≈ 52.3 µM) in the data set on Influenza A virus [7] and 20.7 µg/mL (≈ 14.5 µM) with Influenza A virus [8]. For the same molecule, in data set [9], the CC50 at 72 h came out at 620 µg/mL (≈ 435 µM).

`O=c1cc(-c2ccccc2)oc2cc(O)c(O)c(O)c12` [BAICALEIN]: in [10], the solubility came out at 0.15 µg/mL (≈ 0.555 µM). In [11], this molecule registered a bioavailability of 2.2%.

On to `CCOC(=O)C(Cc1c[nH]c2ccccc12)NC(=O)[C@H]1O[C@@H](O[C@H]2[C@H](O[C@H]3CC[C@]4(C)[C@H]5C(=O)C=C6[C@@H]7C[C@@](C)(C(=O)NC(Cc8c[nH]c9ccccc89)C(=O)OCC)CC[C@]7(C)CC[C@@]6(C)[C@]5(C)CC[C@H]4C3(C)C)O[C@H](C(=O)NC(Cc3c[nH]c4ccccc34)C(=O)OCC)[C@@H](O)[C@@H]2O)[C@H](O)[C@@H](O)[C@@H]1O` (stereo partly drawn), for which the EC50 is 33 µg/mL (≈ 22.5 µM) in the data set on Influenza A virus [7], 17.5 µg/mL (≈ 11.9 µM) in the data set with Influenza A virus [12], 50 µg/mL (≈ 34.1 µM) in the data set on Influenza B virus and 44.5 µg/mL (≈ 30.4 µM) with Influenza A virus [8]. The CC50 at 72 h in [9] is more than 500 µg/mL.

For the molecule `COC(=O)[C@@]1(C)CC[C@]2(C)CC[C@]3(C)[C@H](C(=O)C=C4[C@@]5(C)C=C(C#N)C(=O)C(C)(C)[C@@H]5CC[C@]43C)[C@@H]2C1`, the “log(activity)” value in the data set with Influenza A virus [13] worked out at 2.3.

Turning to `COC(=O)[C@H]1O[C@@H](SCCN(C(C)=O)[C@H]2CC[C@]3(C)[C@H]4C(=O)C=C5[C@@H]6C[C@@](C)(C(=O)O)CC[C@]6(C)CC[C@@]5(C)[C@]4(C)CC[C@H]3C2(C)C)[C@H](O)[C@@H](O)[C@@H]1O`, the half-maximal cytotoxic concentration (CC50) at 48 h in [1] is more than 75 µg/mL. Besides, the half-inhibitory concentration (IC50) with Influenza A virus [2] stood at 72.1 µg/mL (≈ 94.6 µM).

On to `CC1(C)[C@@H](O)CC[C@]2(C)[C@H]3C(=O)C=C4[C@@H]5C[C@@](C)(C(=O)O)CC[C@]5(C)CC[C@@]4(C)[C@]3(C)CC[C@@H]12` [ENOXOLONE], for which, in data set [1], the CC50 at 48 h stood at 7.4 µg/mL (≈ 15.7 µM). The molecule further had a solubility in data set [14] of less than 10 µg/mL.
